“And” between values parts separate entries of the source, which are not always exact repeats. Equal values may be shown once. Read-outs that look alike come from different tables or passages of the source.
Key:
hNET [1] = target: T1, hNET (Homo sapiens, UniProt P23975); assay: biochemical; format: binding
hNET [2] = target: T1, hNET; details: intact cells, 25°C
hNET [3] = target: T1, hNET; details: read-out: IC50 for inhibition of [^3H]NE uptake; ref Eshleman et al., 1999; cited from earlier work

T1 sequence (P23975 whole entry): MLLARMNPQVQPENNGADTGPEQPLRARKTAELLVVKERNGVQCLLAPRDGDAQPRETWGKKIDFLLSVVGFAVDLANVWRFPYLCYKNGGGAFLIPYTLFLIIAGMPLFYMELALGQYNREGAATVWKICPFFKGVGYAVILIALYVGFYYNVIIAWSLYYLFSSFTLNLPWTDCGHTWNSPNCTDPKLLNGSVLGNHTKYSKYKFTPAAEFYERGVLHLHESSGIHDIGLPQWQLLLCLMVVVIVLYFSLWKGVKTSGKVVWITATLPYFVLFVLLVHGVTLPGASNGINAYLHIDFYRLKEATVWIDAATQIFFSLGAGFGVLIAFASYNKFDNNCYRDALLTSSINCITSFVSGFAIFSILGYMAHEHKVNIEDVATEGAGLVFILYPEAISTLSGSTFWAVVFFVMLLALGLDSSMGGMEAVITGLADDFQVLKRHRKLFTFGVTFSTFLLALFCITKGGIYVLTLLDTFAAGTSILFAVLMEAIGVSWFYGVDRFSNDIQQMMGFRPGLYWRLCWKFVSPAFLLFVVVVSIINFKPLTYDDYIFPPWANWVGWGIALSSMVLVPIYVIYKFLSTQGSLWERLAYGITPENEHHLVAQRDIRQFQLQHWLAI

| Structure (SMILES) | Time to maximal [^3H]CFT binding (hNET [1]) [min] | Kd (hNET [1]; Kd of CFT) [nM] | Kd (hNET [1]; Kd of [^3H]CFT binding) | Time to maximal [^3H]CFT binding (hNET [2]) [min] | IC50 (hNET [3]) [nM] | Potency in inhibiting [^3H]CFT binding relative to [^3H]NE uptake (Ki ratio) (hNET [1]) |
| --- | --- | --- | --- | --- | --- | --- |
| COC(=O)[C@H]1[C@@H](c2ccc(F)cc2)C[C@@H]2CC[C@H]1N2C [CFT, 2β-carbomethoxy-3β-(4-fluorophenyl)-tropane] | 15 | 18 ± 5 | 35.7 nM and 22.1 nM and 34.5 nM | 15 | 33.3 | – |
| CN1[C@@H]2CC[C@H]1C[C@@H](OC(c1ccccc1)c1ccccc1)C2 [benztropine] | – | – | – | – | – | equipotent |
| OC1(c2ccc(Cl)cc2)c2ccccc2C2=NCCN21 (stereo not shown) [mazindol] | – | – | – | – | – | weaker |

Source: article PMC3221803 (Journal of neuroscience methods, 2011)
